Here are results for 3 molecules from patent US4244956A, “Method of treating inflammation” (Forsyth Dental Infirmary for Children, priority 1979, dated 1981).

Each structure is given as a SMILES string.

Test [1] addresses T1, prostaglandin synthetase (Ovis aries, UniProt P05979).
T1 construct: sheep vesicular gland microsomal preparation; from tissue; host or cells: sheep vesicular gland microsomes
T1 sequence (P05979 25-600): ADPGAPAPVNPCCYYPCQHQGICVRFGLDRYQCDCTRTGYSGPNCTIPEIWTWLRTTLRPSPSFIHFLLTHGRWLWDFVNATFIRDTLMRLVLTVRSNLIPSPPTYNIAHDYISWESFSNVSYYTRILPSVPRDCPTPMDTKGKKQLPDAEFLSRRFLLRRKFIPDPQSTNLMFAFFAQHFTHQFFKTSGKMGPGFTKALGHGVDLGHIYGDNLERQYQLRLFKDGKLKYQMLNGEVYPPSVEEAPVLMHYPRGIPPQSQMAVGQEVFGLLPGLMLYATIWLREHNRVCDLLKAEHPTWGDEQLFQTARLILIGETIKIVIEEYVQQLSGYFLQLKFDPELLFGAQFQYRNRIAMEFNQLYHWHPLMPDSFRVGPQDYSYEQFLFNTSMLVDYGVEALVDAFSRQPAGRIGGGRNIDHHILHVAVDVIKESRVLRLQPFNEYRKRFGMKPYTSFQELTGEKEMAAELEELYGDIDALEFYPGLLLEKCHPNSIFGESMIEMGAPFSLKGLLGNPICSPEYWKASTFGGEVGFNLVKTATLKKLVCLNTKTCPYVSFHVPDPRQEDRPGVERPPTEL
Nature of the test: Inhibition of prostaglandin synthesis, sheep vesicular gland microsomal preparation, oxygen electrode. The class given is biochemical. As to conditions: sheep vesicular gland microsomes, pH 8.0, inhibitor added 1 minute before arachidonate; oxygen uptake; read-out: [I]50 Values for Inhibition of Prostaglandin Synthesis. The protocol: A commonly used model system for examination of prostaglandin synthetase inhibition is the sheep vesicular gland microsomal preparation (Wallach, D. P. and Daniels, E. G., Biochim. Biophys. Acta., 231: 445-457 (1971)). Prostaglandin synthetase activity was determined by following oxygen tension in a closed reaction chamber using a Clark-type oxygen electrode. For each assay, 2.9 ml of 0.1 M tris HCl buffer, pH 8.0, 10 ul of 0.2 M phenol, and 50 ul of enzyme suspension (2.5 mg microsomal preparation) were added to the reaction chamber. 10 ul of inhibitor in ethanol were added 1 minute prior to initiation of the reaction. The reaction was initiated by addition of 10 ul of 3.7 mM arachidonate solution. The concentration of an inhibitor that reduced prostaglandin synthesis by 50% ([I]50) was determined from plots of activity v. log concentration of inhibitor.

The subject of test [2] is platelet aggregation. The test is described as follows: Inhibition of arachidonate-induced platelet aggregation in platelet-rich plasma (aggregometer). The class given is cell-based. As to conditions: 37° C, 50 ul of 10 mM arachidonate, read-out: [I]50, concentration of inhibitor which prevented irreversible aggregation 50% of the time. On the procedure:
Inhibition of platelet aggregation by prostaglandin synthetase inhibitors is of potential value in treating thromboembolic disorders. Aggregation experiments were performed in a single-channel Chrono-log Platelet Aggregometer at 37° C. To 500 ul of platelet-rich plasm were added 2 ul of inhibitor solution and 50 ul of 10 mM arachidonate. The [I]50 value was defined as the concentration of inhibitor which prevented irreversible aggregation 50% of the time. The [I]50 of 2-(phenylmethoxy)phenol was 0.57 uM.

With `Cc1ccccc1COc1ccccc1O` [2-(2-methylphenylmethoxy)phenol], the IC50 in test [1] came out at 4.7 µM.

Take `Oc1ccccc1OCc1cccc(Cl)c1` [2-(3-chlorophenylmeythoxy)phenol, 2-(3-chlorophenylmethoxy)phenol]: in test [1], the IC50 is 3.3 µM. In the case of `Oc1ccccc1OCc1ccccc1` [2-(phenylmethoxy)phenol], the IC50 in test [1] is 5.2 µM; in test [2], 0.57 µM.
